Read-outs that look alike come from different tables or passages of the source.
Experiments:
Assay type in all cases: cell-based, human
[1] = tested on: uterine fibroid leiomyoma cells; assay: Separate DNA content experiment under conditions similar to Example 1, read at 6 days (FIG. 3B); settings: DNA content determined at time=6 days
Experimental: (§1) Method: Fibroid tissue was obtained from patients undergoing hysterectomy for symptomatic leiomyomata, and leiomyoma cells were isolated from the tissue using standard techniques. Leiomyoma cells in 5% fetal calf serum were plated at 22,000 cells/well in 12-well plate. Cells were allowed to acclimate and grow for 24 hours before the start of the experiment. At time=0, the DNA content of the wells was determined (32+/−0.6 ng/well), and the cells were treated with different concentrations of the FGI agents as shown in FIG. 3A in 5% fetal calf serum. Controls received fetal calf serum alone. After treatment at time=4 days, the DNA content of each well was determined using standard methods. All points were determined in triplicate and are the mean +/− standard error.
FIG. 3B is a graph of the results for α-tocopherol succinate from a separate experiment under conditions similar to Example 1. Here, the DNA content of treated wells was determined at time=6 days. The area under the horizontal line indicates the concentration at which net cell death occurred in this experiment (˜38 μM).

[2] = tested on: uterine fibroid leiomyoma cells; assay: Growth of leiomyoma cells with low added concentrations over background tocopherols (Example 2); settings: added concentrations ranging from 1 to 5 μM over background tocopherols (about 10 μM); 4 days
Experimental: as §1
Method: See Example 1 above generally. Vitamin C, an antioxidant that is not an identified potential FGI agent, was used as an experimental substrate control.
Results: The results are illustrated in FIGS. 4A and 4B. The DNA concentration of controls at time=4 days was 99+/−0.2 ng/well (the “0” concentration in FIGS. 4A & 4B). Growth of uterine fibroid cells clearly occurred in the presence of a background concentration of tocopherols. […] However, upon the addition of 10 μM over back ground tocopherol treated wells began to show detectable inhibition of the growth of uterine fibroid cell populations.

[3] = tested on: uterine fibroid leiomyoma cells; assay: DNA content assay of growing leiomyoma cells treated with FGI agents (Example 1, 4 days); settings: for NG0 (= 32 ng) Concentration (no net growth): concentration giving the time=0 DNA content of 32 ng/well; for IC50: read-out: IC50 (= 80 ng) Concentration
Source text: A DNA assay was used for determining the effect of potential FGI agents on the growth of uterine fibroid leiomyoma cells. The assay determined the effect of various concentrations of an individual FGI agent on the accumulation of DNA in an actively growing population of uterine fibroid leiomyoma cells. The accumulation of DNA in treated cell populations relative to untreated controls was an indication the efficacy of the FGI agent for inhibiting fibroid cell proliferation.
as §1
The significance of the IC50 point was that it represented an estimated point relative to which a substrate may in part be gauged as an effective FGI agent. The NG0 (no net growth) was the point on the graph corresponding to the time=0 or starting DNA content of the wells.

[4] = tested on: uterine fibroid leiomyoma cells; assay: DNA content experiment similar to Example 1, GF109203x versus α-tocopherol succinate, 6 days (FIGS. 5A & 5B); settings: comparison of FIG. 5A with 5B; DNA content at time=6 days
Experimental: as §1
Clearly from Examples 1 & 2, tocopherol related substrates are potential FGI agents. This was expected because of tocopherol's effect on the PKC pathway. However, non-tocopherol related substrates that can appropriate appropriately effect the PKC pathway were also identified as potential FGI agents. Therefore, GF109203x, a protein kinase C inhibitor, was tested in an experiment similar to that of Example 1 to determine the efficacy of a non-tocopherol related, identified potential FGI agent to inhibit fibroid leiomyoma cell proliferation. Here, the DNA content of treated wells was determined at time=6 days. […]

[5] = time=4 days, 5% fetal calf serum, N/A = condition not attained
[6] = increase in DNA content 50% of that of control wells, time=4 days, 5% fetal calf serum, N/A = condition not attained
[7] = Homo sapiens, 96 h, increase in DNA content 50% of that of control wells, time=4 days, 5% fetal calf serum, N/A = condition not attained

| SMILES | growth of uterine fibroid cell populations at low added concentrations [2] | NG0 (= 32 ng) Concentration (no net growth) [3, 5] | also measured |
| --- | --- | --- | --- |
| Cc1c(C)c2c(c(C)c1OC(=O)CCC(=O)O)CC[C@@](C)(CCC[C@H](C)CCC[C@H](C)CCCC(C)C)O2 [α-Tocopherol succinate] | substantially uninhibited | 38 µM | concentration at which net cell death occurred [1]: ~38 µM; IC50 [3, 6]: 22 µM |
| Cc1cc(O)c(C)c2c1O[C@](C)(CCC[C@H](C)CCC[C@H](C)CCCC(C)C)CC2 [β-Tocopherol] | substantially uninhibited | – | – |
| CN(CCOc1ccc(CC2SC(=O)NC2=O)cc1)c1ccccn1 (centres unmarked) [Rosiglitazone] | – | 90 µM | IC50 ([3]; Homo sapiens, 96 h): 40 µM |
| Cc1c(C)c2c(c(C)c1O)CCC(C)(COc1ccc(CC3SC(=O)NC3=O)cc1)O2 (centres unmarked) [Troglitazone] | – | 50 µM | IC50 [3, 7]: 12 µM |
| CN(C)CCCn1cc(C2=C(c3c[nH]c4ccccc34)C(=O)NC2=O)c2ccccc21 [GF109203x] | – | – | efficiency at inhibiting fibroid leiomyoma cell proliferation relative to α-tocopherol succinate [4]: ~5 time |
| Cc1c(C)c2c(c(C)c1O)CC[C@@](C)(CCC[C@H](C)CCC[C@H](C)CCCC(C)C)O2 [α-Tocopherol] | substantially uninhibited | – | IC50 [3, 6]: 27 µM |
| CCc1ccc(CCOc2ccc(CC3SC(=O)NC3=O)cc2)nc1 (centres unmarked) [Pioglitazone] | – | 88 µM | IC50 [3, 7]: 40 µM |

Source: patent US6537566B1, “Compositions and methods for the non-invasive treatment of uterine fibroid cells” (priority 1999, dated 2003)
